Experimental data taken from paper PMC8968952, “Modulation of ERCC1-XPF Heterodimerization Inhibition via Structural Modification of Small Molecule Inhibitor Side-Chains” (Frontiers in Oncology, 2022).
Several values for one entry are separate records, joined by “and”; a condition that tells them apart may be missing. Equal entries are not always repeated.

What was measured:
[1] = target: T1, ERCC1-XPF heterodimer in A549 cells (Homo sapiens, UniProt Q92889); test: Proximity ligation assay of ERCC1-XPF heterodimerization; format: cell-based; conditions: 2 µM, 24 h
T1 construct: endogenous in cells; host or cells: A549
T1 sequence (Q92889 1-916): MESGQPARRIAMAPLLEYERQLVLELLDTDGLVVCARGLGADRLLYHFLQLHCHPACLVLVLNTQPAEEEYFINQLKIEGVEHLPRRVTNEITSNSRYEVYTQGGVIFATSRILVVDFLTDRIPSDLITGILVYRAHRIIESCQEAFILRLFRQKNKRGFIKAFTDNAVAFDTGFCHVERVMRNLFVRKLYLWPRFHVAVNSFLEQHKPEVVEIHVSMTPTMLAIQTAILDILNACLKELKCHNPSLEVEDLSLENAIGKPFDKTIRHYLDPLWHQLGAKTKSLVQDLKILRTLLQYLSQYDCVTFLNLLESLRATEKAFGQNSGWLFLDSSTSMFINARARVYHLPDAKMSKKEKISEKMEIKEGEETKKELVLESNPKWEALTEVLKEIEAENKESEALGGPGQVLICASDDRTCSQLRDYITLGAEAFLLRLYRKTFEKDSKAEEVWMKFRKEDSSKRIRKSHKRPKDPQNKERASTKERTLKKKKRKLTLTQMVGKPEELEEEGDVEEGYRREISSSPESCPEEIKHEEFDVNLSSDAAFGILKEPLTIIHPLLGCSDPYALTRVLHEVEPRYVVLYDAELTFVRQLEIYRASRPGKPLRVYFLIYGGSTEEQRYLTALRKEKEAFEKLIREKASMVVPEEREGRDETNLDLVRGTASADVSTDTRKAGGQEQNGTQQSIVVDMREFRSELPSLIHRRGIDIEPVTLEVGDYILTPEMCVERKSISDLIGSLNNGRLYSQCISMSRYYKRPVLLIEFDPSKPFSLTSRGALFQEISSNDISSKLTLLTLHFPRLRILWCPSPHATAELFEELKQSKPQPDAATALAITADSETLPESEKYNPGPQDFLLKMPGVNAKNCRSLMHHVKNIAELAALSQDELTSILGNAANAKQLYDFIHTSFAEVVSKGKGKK
Protocol: A previously published protocol ([73]) was followed with minor modifications. Briefly, 3 x 10^4 A549 cells were seeded in each well of an 8-well Chamber Slide system (Ibidi. Fitchburg, WI) and allowed to adhere overnight. The cells were then treated with the inhibitor (2 μM prepared from a 1 mM stock in DMSO) or vehicle control (0.2% DMSO) and incubated for 24 h. Samples were fixed and processed for protein proximity ligation analysis (PLA) by the Duolink PLA assay kit (Sigma-Aldrich, Oakville, ON) using an ERCC1 antibody (A73368-100, 1/100; EpiGentek, Farmingdale, NY) and an XPF antibody (LS-C173159, 1/100; LifeSpan BioSciences, Seattle, WA). […] Images of the interaction of ERCC1 and XPF represented as red dots were analyzed using IMARIS 9.7 software (Oxford Instruments). Results are expressed as mean values from at least three experiments conducted independently in duplicate.
To confirm that compound 6 was able to disrupt the interaction between subunits in the ERCC1-XPF heterodimer in cells, we performed PLA using A549 lung cancer cells exposed to 2 µM compound 6 or DMSO vehicle for 24 h. […] In the presence of vehicle (0.2% DMSO) alone we observed an average of 75.7 ± 15.4 foci per cell whereas in the presence of compound 6 only an average of 3.1 ± 2.6 foci per cell were detected. […]

[2] = target: T2, ERCC1-XPF (Homo sapiens, UniProt Q92889); test: Steady state intrinsic fluorescence quenching binding assay; conditions: excitation 295 nm, emission 330 nm
T2 construct: the final purity of the full-length ERCC1-XPF heterodimer was determined to be ~35%; His6; made in house; host or cells: E. coli BL21(DE3)
T2 sequence (Q92889 1-916): T1 sequence (Q92889 1-916)
Protocol: Steady-state fluorescence spectra were measured at room temperature on a PerkinElmer LS-55 spectrofluorometer (Freemont, CA) as previously described ([70]). In studying the effects of inhibitors on protein fluorescence intensities, additions to protein samples were made from inhibitor stock solutions in DMSO, keeping the protein dilution below 3%. Data were plotted using GraphPad Prism version 5.04 software (San Diego, California)
Investigation of the binding of compound 6 to ERCC1-XPF was carried out via intrinsic fluorescence spectroscopy. The tryptophan residues of ERCC1-XPF were irradiated at 295 nm and the emission at 330 nm was monitored. Upon addition of compound 6 quenching of the intrinsic fluorescence of the protein was observed, consistent with ligand binding to a protein. The binding affinity was determined by plotting emission at 330 nm against increasing concentration of compound 6 ( Figure 3C ).

[3] = Bidirectional permeability in Caco-2 cells; format: in vitro ADME; conditions: human
Protocol: (§1) The ADME (absorption, distribution, metabolism, and excretion) profile of our lead compound 6 was determined by standard protocols carried out by WuXi AppTec (Shanghai) Co (https://www.wuxiapptec.com/). The following tests were conducted: distribution coefficient (log D at pH 7.4), aqueous solubility (Kinetic), metabolic stability in human liver microsomes and cryopreserved human hepatocytes, bidirectional permeability in Caco-2 cells, serum protein binding, and cytochrome P450 (CYP) inhibition (CYP1A2, CYP2C9, CYP2C19, CYP2D6, and CYP3A4-M).

[4] = target: CYP2C9 (Homo sapiens, UniProt P11712); test: Cytochrome P450 inhibition, CYP2C9; format: in vitro ADME
Sequence of CYP2C9 (P11712 whole entry): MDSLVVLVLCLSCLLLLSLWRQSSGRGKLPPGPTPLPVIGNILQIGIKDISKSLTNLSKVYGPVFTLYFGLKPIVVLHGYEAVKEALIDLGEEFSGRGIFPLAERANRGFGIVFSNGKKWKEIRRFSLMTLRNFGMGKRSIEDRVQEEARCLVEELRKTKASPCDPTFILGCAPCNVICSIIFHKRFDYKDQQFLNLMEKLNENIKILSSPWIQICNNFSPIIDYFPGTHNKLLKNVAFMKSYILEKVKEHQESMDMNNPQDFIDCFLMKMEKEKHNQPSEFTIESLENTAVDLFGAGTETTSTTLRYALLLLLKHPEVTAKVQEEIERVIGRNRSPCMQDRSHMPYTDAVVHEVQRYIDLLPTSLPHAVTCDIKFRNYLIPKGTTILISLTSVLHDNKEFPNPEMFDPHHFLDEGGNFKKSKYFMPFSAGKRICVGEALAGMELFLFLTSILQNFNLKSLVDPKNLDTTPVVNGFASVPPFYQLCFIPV
Protocol: as §1

[5] = tested on: HCT-116 cells; test: Clonogenic survival assay, cyclophosphamide treatment; format: cell-based, human
Protocol: […] The medium was then replaced with drug and inhibitor-free fresh medium. After incubation for another 9 days to allow for colony formation, the plates were stained with crystal violet, colonies were counted, and plating efficiency and surviving fraction were calculated. Data were plotted using GraphPad Prism version 5.04. software.

[6] = Metabolic stability in cryopreserved human hepatocytes; format: in vitro ADME
Protocol: as §1

SMILES: COc1ccc2nc3cc(Cl)ccc3c(Nc3ccc(O)c(CN4CCN(CCN(C(C)C)C(C)C)CC4)c3)c2c1 [Compound 6]
- ERCC1-XPF PLA foci per cell [1]: 3.1 ± 2.6 foci per cell and 3 foci per cell
- Kd [2]: 0.14 ± 0.01 µM
- efflux ratio [3]: 27.5
- CYP2C9 inhibition grade (in words) [4]: weak inhibitor
- IC50 [4]: 33.4 µM
- sensitization to cyclophosphamide (in words) ([5]; 0.5 μM 6, 10 at 1.0 μM or 0.5 μM): sensitized the cells to cyclophosphamide
- cell survival with cyclophosphamide ([5]; 0.5 μM compound, 50 μM cyclophosphamide): 62%
- cell survival at 250 μM cyclophosphamide (in words) ([5]; 0.5 μM compound, 250 μM cyclophosphamide): almost no cells surviving
- metabolic stability grade, hepatocyte assay (in words) [6]: low to moderate metabolic stability
- CLint scaled ([6]; human, cryopreserved hepatocytes, read-out: Metabolic stability in cryopreserved human hepatocytes (clearance)): 33.5 mL/min/kg
- half-life ([6]; human, cryopreserved hepatocytes, read-out: Metabolic stability in cryopreserved human hepatocytes T1/2): 1.92 h
